Experimental data from article PMC8510480, “Searching Anti-Zika Virus Activity in 1H-1,2,3-Triazole Based Compounds” (Molecules, 2021).

Tests used:
[1] = system: ZIKV; experiment: Screening test for anti-ZIKV activity (post-infection, compounds at CC20, TCID50 titration); type: cell-based, Zika virus; conditions: ZIKV MOI 0.1, compound at CC20, 5 days, TCID50, Vero cells
Protocol: The antiviral activities of the compounds were evaluated by infecting Vero cells with ZIKV and then treating them with the testing molecules. Virus titer in the supernatants of treated wells and its comparison with the negative (cell + virus) and the positive 6-methylmercaptopurine riboside (6MMPr) controls allowed for the determination of the antiviral effect.
Figure 4 Graphic result of all triazole derivates in the screening test for anti-ZIKV activity. The screening test was made for post-infection with ZIKV MOI 0.1 and treated with CC20 values from heterocyclic compounds discovered in the cytotoxicity test. After five days, the supernatant was collected and titrated by TCID50 method. The experiment was conducted in triplicates and values are the mean and the standard deviation (SD). […]
96-well plates with 1 × 10^4 cell/well were used in this assay and prepared 24 h previously. […] The reading was performed in an inverted optical microscope AE2000, Motic (Motic, Kowloon Bay, Hong Kong) counting positives wells by the presence of cytopathic effect and the determination of the sample title was performed with the aid of the Microsoft Office Excel program (Microsoft® Office, Redmond, WA, USA).
The screening of the compounds was carried out with the CC20 value (µM) to determine the most viable compounds for more detailed antiviral tests. […] The samples were then titrated and analysed statistically.

[2] = system: Vero cells; experiment: Cytotoxicity test with MTT method in Vero cells; type: cell-based, African green monkey; conditions: 5 days
Protocol: (§1) The cytotoxicity of compounds 1–7 to Vero cells, an epithelial cell line derived from the kidney of an African green monkey, was tested using the 3-(4,5-dimethylthiazol-2-yl)-2,5-diphenyltetrazolium bromide (MTT) method. […] Based on CC20 values, which was the maximum concentration used for antiviral screening, 3b compound was the least toxic with a value of 527.2 µM. Compounds 2a and 2b were the most cytotoxic with values of 8.87 µM and 9.89 µM, respectively. […] The results from compounds 3a, 3b and 4a, 4b ranged from 40.69 to 527.20 µM. […] The presence of phthalimide group or sugar increases the values of CC20 and CC50 (Table 2 and Supplementary Material: Figure S1).
(§2) 96-well plates with 1 × 10^4 cell/well were used in this assay and prepared 24 h previously. The compounds were diluted in a 2:1 ratio so that a maximum of 0.8% DMSO was used. The concentrations used were 800, 400, 200, 100, 50, 25 and 12.5 µM. Dilutions were added to the wells in triplicate and incubated at 37 °C and 5% CO2 atmosphere. After 5 days, the wells were emptied and a 50 µL of 1 mg/mL MTT (3-(4,5-dimethylthiazol-2-yl)-2,5-diphenyltetrazolium bromide) (Sigma-Aldrich) solution was added, and the cells were incubated for 3–4 h for formation of formazan crystals through the mitochondria of viable cells. Then, medium was removed and 100 µL DMSO was added to the wells to solubilize the formazan crystals. With the aid of an incubator Tecnal TE-420 (Tecnal Equipamentos Científicos, Piracicaba, São Paulo, Brazil), the plates were homogenized at 120 RPM at 37 °C and the optical densities were read at 570 nm on a spectrophotometer BioTekTM ELx800TM (BioTek Instruments, Winooski, VT, USA).
(§3) The determination of the CC20 and CC50 values was obtained through the linear regression analysis of the XY graph generated by the values of the concentrations used in the test and the triplicate values of the viability. In the post-infection and pre-treatment tests, ANOVA and Dunnett tests were used, considering […] as the minimum significance value. All tests were performed in GraphPad Prism v.6.0 program (GraphPad Software, Inc., San Diego, CA, USA).

[3] = Cytotoxicity test with MTT method in Vero cells; type: cell-based, African green monkey; conditions: African green monkey, 5 days, read-out: CC50 (50% cytotoxic concentration)
Protocol: as §1, §2, §3

## O=C1C(Br)=C(NCc2cn(CN3C(=O)c4ccccc4C3=O)nn2)C(=O)c2ccccc21 [Compound 4b]
[1]
  reduction in viral titer vs non-treated control: statistically significant reduction in viral titer
[2]
  CC20 (20% cytotoxic concentration): 136.90 µM
[3]
  CC50 at 5 days: 330 µM
